{"source": "patent US11878049B1", "about": "“Mitapivat therapy and modulators of cytochrome P450” (Agios Pharmaceuticals, Inc., priority 2019, dated 2024)", "key": {"CYP2C19": {"molecular_target": "CYP2C19 (Homo sapiens, UniProt P33261)", "sequence (P33261 whole entry)": "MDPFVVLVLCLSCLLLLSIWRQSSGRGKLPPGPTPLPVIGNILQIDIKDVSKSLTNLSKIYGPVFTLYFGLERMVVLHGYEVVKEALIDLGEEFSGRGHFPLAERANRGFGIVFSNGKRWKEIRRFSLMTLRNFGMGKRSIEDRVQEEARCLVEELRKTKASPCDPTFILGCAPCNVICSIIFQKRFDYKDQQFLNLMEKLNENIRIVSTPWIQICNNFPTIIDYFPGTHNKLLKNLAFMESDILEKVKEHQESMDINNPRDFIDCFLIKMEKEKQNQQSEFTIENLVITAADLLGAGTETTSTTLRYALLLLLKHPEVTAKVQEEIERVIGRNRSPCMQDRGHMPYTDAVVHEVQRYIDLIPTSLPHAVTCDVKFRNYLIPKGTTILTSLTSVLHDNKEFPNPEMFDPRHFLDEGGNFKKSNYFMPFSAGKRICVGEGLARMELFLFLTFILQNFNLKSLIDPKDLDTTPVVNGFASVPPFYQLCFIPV", "assay": "CYP enzyme inhibition", "assay_type": "in vitro ADME"}, "[1]": {"assay": "Drug-drug interaction study Part 1: plasma PK after 20 mg mitapivat sulfate alone or with itraconazole", "assay_type": "in vivo, human", "details": "for Total exposure in the presence of itraconazole compared to dosing of mitapivat sulfate alone: 20 mg mitapivat sulfate, 200 mg itraconazole; for AUC(0-inf) / AUC(0-t) / Cmax: both sexes, human, healthy subjects; for AUC(0-inf): read-out: AUC0-inf, Geometric LSM; for AUC(0-t): read-out: AUC0-t, Geometric LSM; for Cmax: read-out: Cmax, Geometric LSM", "method": "(§1) Twenty-eight (28) healthy, adult male and female (non-childbearing potential) subjects were enrolled in the study in total; 14 subjects in each study part (Parts 1 and 2). A minimum of 8 female subjects were enrolled in the study (i.e., a minimum of 4 female subjects per study part). Each subject participated in either Part 1 or Part 2, but not both.\nOn Day 1 of Treatment Period 1, a single oral dose of 20 mg mitapivat sulfate was administered. Serial blood samples for plasma assay of mitapivat concentrations and its CYP3A4 metabolite, referred to herein as the “Metabolite” (structure below),\n[drawing 3] were collected from predose to 120 hours following administration of mitapivat sulfate. In Treatment Period 2, an oral dose of 200 mg itraconazole was administered once daily (QD) for 9 consecutive days (Day 1 through Day 9 of Treatment Period 2) with a single oral dose of 20 mg mitapivat sulfate coadministered on Day 5. Serial blood samples for plasma assay of mitapivat and the Metabolite concentrations were collected from predose to 120 hours following coadministration of mitapivat sulfate and itraconazole on Day 5.\nIn Treatment Period 1, mitapivat sulfate was administered orally with approximately 240 mL of water. In Treatment Period 2, on Days 1 to 4, itraconazole was administered alone immediately followed by approximately 220 mL of water, and on Day 5, itraconazole was administered first (no water) and was immediately followed by mitapivat sulfate administration with approximately 220 mL of water. Study drugs (mitapivat sulfate and itraconazole) were administered following an overnight fast of at least 10 hours on Day 1 of Treatment Period 1 (mitapivat sulfate only) and Day 5 of Treatment Period 2 (mitapivat sulfate and itraconazole), and subjects remained fasted for 4 hours after dosing. On all other dosing days, itraconazole was administered following a predose fast of at least 4 hours and subjects remained fasted for at least 2 hours after dosing.\nMitapivat sulfate (20 mg tablets) administered along with Itraconazole (also referred to as Sporanox®, 10 mg/mL oral solution, is considered as the test arm in this study. Mitapivat sulfate administered alone is considered as the reference arm in this study. In Period 1, a single oral dose of 20 mg mitapivat sulfate was administered orally with approximately 240 mL of water. In Period 2, on Day 5 (coadministration of itraconazole and mitapivat sulfate), 200 mg itraconazole (20 mL of 10 mg/mL oral solution) was administered first (no water) and was immediately followed by 20 mg mitapivat sulfate (1×20 mg tablet) administration with approximately 220 mL of water. On all other dosing days, itraconazole was administered alone immediately followed by approximately 220 mL of water. Each subject received 2 doses of mitapivat sulfate and 9 doses of itraconazole in Part 1.\n(§2) In Parts 1 and 2, for mitapivat and the Metabolite, blood samples were obtained for all subjects to determine the plasma concentrations of mitapivat, and the Metabolite, before mitapivat sulfate dosing (0 hour) on Day 1 of Period 1 (Parts 1 and 2) and Day 5 (Part 1) or Day 8 (Part 2) of Period 2 at 0.5, 1, 1.5, 2, 3, 4, 5, 6, 8, 12, 16, 24, 48, 72, 96, and 120 hours postdose. Plasma concentrations of mitapivat and the Metabolite were determined using methods validated with respect to accuracy, precision, linearity, sensitivity, and specificity, with a lower limit of quantitation (LLOQ) of 0.5 ng/mL for both analytes. A noncompartmental PK approach was used to analyze individual plasma mitapivat and the Metabolite concentration time data (using Phoenix® WinNonlin® Version 7.0). The following PK parameters were calculated: AUC0-t, AUC0-inf, AUC0-24, AUC%extrap, Cmax, CL/F (mitapivat only), Tlast, Tmax, t½, and Vz/F (mitapivat only).\n(§3) PK parameters were presented with a minimum of 3 significant figures. […]"}, "[2]": {"assay": "Drug-drug interaction study Part 2: plasma PK after 50 mg mitapivat sulfate alone or with rifampin", "assay_type": "in vivo, human", "details": "for Nominal time of peak arithmetic mean concentration: postdose; for Nominal time of peak arithmetic mean concentration / AUC(0-inf) / AUC(0-t) / Cmax: plasma; for Total exposure in the presence of rifampin compared to dosing of mitapivat sulfate alone: 50 mg mitapivat sulfate, 600 mg rifampin; for AUC(0-inf) / AUC(0-t) / Cmax: both sexes, human, healthy subjects; for AUC(0-inf): read-out: AUC0-inf, Geometric LSM; for AUC(0-t): read-out: AUC0-t, Geometric LSM; for Cmax: read-out: Cmax, Geometric LSM", "method": "as §1\nOn Day 1 of Treatment Period 1, a single oral dose of 50 mg mitapivat sulfate was administered. Serial blood samples for plasma assay of mitapivat and the Metabolite concentrations were collected from predose to 120 hours following administration of mitapivat sulfate. In Treatment Period 2, an oral dose of 600 mg rifampin was administered QD for 12 consecutive days (Day 1 through Day 12 of Treatment Period 2) with a single oral dose of 50 mg mitapivat sulfate coadministered on Day 8. Serial blood samples for plasma assay of mitapivat sulfate and the Metabolite concentrations were collected from predose to 120 hours following coadministration of mitapivat and rifampin on Day 8.\nIn Part 2, study drugs were administered with approximately 240 mL of water on all dosing days including the coadministration of mitapivat sulfate and rifampin on Day 8 of Treatment Period 2. Mitapivat sulfate and rifampin was administered following an overnight fast of at least 10 hours on Day 1 of Treatment Period 1 (mitapivat sulfate only) and Day 8 of Treatment Period 2 (both mitapivat sulfate and rifampin) and subjects remained fasted for 4 hours after dosing. On all other dosing days, rifampin was administered following a predose fast of at least 4 hours and subjects remained fasted for at least 2 hours after dosing. There was a washout period of 7 days between the mitapivat sulfate dose in Treatment Period 1 and the first itraconazole (Part 1) or rifampin (Part 2) dose in Treatment Period 2. All study drugs were consumed within 5 minutes for both Part 1 and Part 2.\nMitapivat sulfate (50 mg tablets) administered along with Rifampin (also referred to as Rifadin®, 300 mg capsules) is considered as the test arm in this study. Mitapivat sulfate (50 mg tablets) administered alone is considered as the reference arm in this study.\nIn Period 1, a single oral dose of 50 mg mitapivat sulfate was administered orally. In Period 2, subjects were administered 600 mg rifampin (2×300 mg capsules) QD on Day 1 to Day 12 inclusive, with 50 mg mitapivat sulfate (1×50 mg tablet) coadministered on Day 8. Study drugs were administered with approximately 240 mL of water on all dosing days including the coadministration of mitapivat sulfate and rifampin on Day 8 of Period 2.\nas §2, §3"}, "CYP1A2": {"molecular_target": "T1, CYP1A2 (Homo sapiens, UniProt P05177)", "T1 construct": "CYP-enzyme phenotyping using human liver microsomes and recombinant CYP enzymes; from tissue; host or cells: human liver microsomes", "T1 sequence (P05177 whole entry)": "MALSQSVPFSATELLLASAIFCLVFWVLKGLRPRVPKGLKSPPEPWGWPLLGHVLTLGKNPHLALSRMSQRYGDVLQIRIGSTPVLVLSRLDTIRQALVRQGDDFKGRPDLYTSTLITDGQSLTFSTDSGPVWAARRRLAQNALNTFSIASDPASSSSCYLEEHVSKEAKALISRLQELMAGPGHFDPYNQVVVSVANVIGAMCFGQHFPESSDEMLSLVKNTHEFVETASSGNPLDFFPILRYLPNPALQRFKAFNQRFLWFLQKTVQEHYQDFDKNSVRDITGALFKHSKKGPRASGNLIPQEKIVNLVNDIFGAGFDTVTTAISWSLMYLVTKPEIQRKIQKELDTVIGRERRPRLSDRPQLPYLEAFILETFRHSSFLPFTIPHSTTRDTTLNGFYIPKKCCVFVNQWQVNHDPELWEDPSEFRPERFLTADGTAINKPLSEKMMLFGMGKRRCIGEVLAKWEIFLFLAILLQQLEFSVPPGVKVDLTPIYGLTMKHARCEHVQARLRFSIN", "assay": "CYP-enzyme phenotyping using human liver microsomes and recombinant CYP enzymes", "assay_type": "in vitro ADME"}, "CYP2C8": {"molecular_target": "CYP2C8 (Homo sapiens, UniProt P10632)", "sequence (P10632 whole entry)": "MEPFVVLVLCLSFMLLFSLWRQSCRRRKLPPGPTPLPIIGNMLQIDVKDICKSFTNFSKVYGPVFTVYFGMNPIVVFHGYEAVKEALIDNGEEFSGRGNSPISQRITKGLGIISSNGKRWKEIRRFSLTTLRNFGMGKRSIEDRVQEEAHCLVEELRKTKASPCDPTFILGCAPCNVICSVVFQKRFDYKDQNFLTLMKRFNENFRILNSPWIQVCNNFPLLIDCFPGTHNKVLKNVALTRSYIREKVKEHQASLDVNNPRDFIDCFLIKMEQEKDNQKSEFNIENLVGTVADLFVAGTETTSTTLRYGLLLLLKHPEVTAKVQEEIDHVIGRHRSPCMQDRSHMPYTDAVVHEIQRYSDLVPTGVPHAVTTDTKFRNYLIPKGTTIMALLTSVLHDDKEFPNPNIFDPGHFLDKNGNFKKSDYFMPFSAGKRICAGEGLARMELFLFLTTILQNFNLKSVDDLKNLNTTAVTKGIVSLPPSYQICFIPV", "assay": "CYP-enzyme phenotyping using human liver microsomes and recombinant CYP enzymes", "assay_type": "in vitro ADME", "set-up": "CYP-enzyme phenotyping using human liver microsomes and recombinant CYP enzymes; from tissue; host or cells: human liver microsomes"}, "[3]": {"details": "plasma, 20 mg mitapivat sulfate oral alone (Reference)"}, "[4]": {"details": "plasma, 20 mg mitapivat sulfate oral on Day 5 + 200 mg itraconazole QD Days 1-9 (Test)"}, "[5]": {"details": "50 mg mitapivat sulfate coadministered with 600 mg rifampin (Period 2)"}, "[6]": {"details": "50 mg mitapivat sulfate given alone (Period 1)"}, "[7]": {"details": "50 mg mitapivat sulfate oral alone (Reference)"}, "[8]": {"details": "50 mg mitapivat sulfate oral on Day 8 + 600 mg rifampin QD Days 1-12 (Test)"}}, "data": [{"smiles": "O=C(c1ccc(NS(=O)(=O)c2cccc3cccnc23)cc1)N1CCNCC1", "note": "[Metabolite]", "values": [{"measurement": "Inhibition of CYP2C19", "setting": "CYP2C19", "value": "mild inhibitor"}, {"measurement": "Total exposure in the presence of itraconazole compared to dosing of mitapivat sulfate alone", "setting": "[1]", "value": "increased"}, {"measurement": "AUC(0-inf)", "setting": "[1]; [3]", "value": 216, "unit": "ng·h/mL"}, {"measurement": "AUC(0-t)", "setting": "[1]; [3]", "value": 197, "unit": "ng·h/mL"}, {"measurement": "Cmax", "setting": "[1]; [3]", "value": 18.8, "unit": "ng/mL"}, {"measurement": "AUC(0-inf)", "setting": "[1]; [4]", "value": 339, "unit": "ng·h/mL"}, {"measurement": "AUC(0-t)", "setting": "[1]; [4]", "value": 300, "unit": "ng·h/mL"}, {"measurement": "Cmax", "setting": "[1]; [4]", "value": 9.11, "unit": "ng/mL"}, {"measurement": "Nominal time of peak arithmetic mean concentration", "setting": "[2]; [5]", "value": "~1", "unit": "h"}, {"measurement": "Nominal time of peak arithmetic mean concentration", "setting": "[2]; [6]", "value": "approximately 2 hour"}, {"measurement": "Total exposure in the presence of rifampin compared to dosing of mitapivat sulfate alone", "setting": "[2]", "value": "decreased"}, {"measurement": "AUC(0-inf)", "setting": "[2]; [7]", "value": 663, "unit": "ng·h/mL"}, {"measurement": "AUC(0-t)", "setting": "[2]; [7]", "value": 623, "unit": "ng·h/mL"}, {"measurement": "Cmax", "setting": "[2]; [7]", "value": 53.8, "unit": "ng/mL"}, {"measurement": "AUC(0-inf)", "setting": "[2]; [8]", "value": 245, "unit": "ng·h/mL"}, {"measurement": "AUC(0-t)", "setting": "[2]; [8]", "value": 230, "unit": "ng·h/mL"}, {"measurement": "Cmax", "setting": "[2]; [8]", "value": 64.5, "unit": "ng/mL"}]}, {"smiles": "O=C(c1ccc(NS(=O)(=O)c2cccc3cccnc23)cc1)N1CCN(CC2CC2)CC1", "note": "[Mitapivat, N-(4-(4-(cyclopropylmethyl)piperazine-1-carbonyl)phenyl)quinoline-8-sulfonamide]", "values": [{"measurement": "Contribution of CYP1A2 to metabolism", "setting": "CYP1A2", "value": "minor contributions"}, {"measurement": "Total exposure in the presence of itraconazole compared to dosing of mitapivat sulfate alone", "setting": "[1]", "value": "increased"}, {"measurement": "AUC(0-inf)", "setting": "[1]; [3]", "value": 1940, "unit": "ng·h/mL"}, {"measurement": "AUC(0-t)", "setting": "[1]; [3]", "value": 1880, "unit": "ng·h/mL"}, {"measurement": "Cmax", "setting": "[1]; [3]", "value": 412, "unit": "ng/mL"}, {"measurement": "AUC(0-inf)", "setting": "[1]; [4]", "value": 9480, "unit": "ng·h/mL"}, {"measurement": "AUC(0-t)", "setting": "[1]; [4]", "value": 8860, "unit": "ng·h/mL"}, {"measurement": "Cmax", "setting": "[1]; [4]", "value": 704, "unit": "ng/mL"}, {"measurement": "Delay in time to peak concentration", "setting": "[1]; coadministered with itraconazole compared to administered alone, plasma", "value": "approximately 2 hours"}, {"measurement": "Nominal time of peak arithmetic mean concentration", "setting": "[2]; [5]", "value": "~0.5", "unit": "h"}, {"measurement": "Nominal time of peak arithmetic mean concentration", "setting": "[2]; [6]", "value": "approximately 1 hour"}, {"measurement": "Total exposure in the presence of rifampin compared to dosing of mitapivat sulfate alone", "setting": "[2]", "value": "decreased"}, {"measurement": "AUC(0-inf)", "setting": "[2]; [7]", "value": 5680, "unit": "ng·h/mL"}, {"measurement": "AUC(0-t)", "setting": "[2]; [7]", "value": 5560, "unit": "ng·h/mL"}, {"measurement": "Cmax", "setting": "[2]; [7]", "value": 1260, "unit": "ng/mL"}, {"measurement": "AUC(0-inf)", "setting": "[2]; [8]", "value": 496, "unit": "ng·h/mL"}, {"measurement": "AUC(0-t)", "setting": "[2]; [8]", "value": 486, "unit": "ng·h/mL"}, {"measurement": "Cmax", "setting": "[2]; [8]", "value": 292, "unit": "ng/mL"}, {"measurement": "Contribution of CYP2C8 to metabolism", "setting": "CYP2C8", "value": "minor contributions"}]}]}
